Measured values published in patent publication US8415351B2 (priority 2007, dated 2013).
Like-named read-outs stand apart in the source and are kept apart here.

Columns and labels:
[1] = molecular target: T1, HCV polymerase 1A (Δ21 NS5B, H77) (Hepatitis C virus genotype 1a, UniProt P27958); test: biochemical
T1 construct: 20 to 50 nM Δ21 NS5B
Outline: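 Radiometric assay with Δ21 NS5B (H77): 20 μM CTP, 20 μM ATP, 1 μM ^3H-UTP, 5 nM template RNA, 2–4 h at room temperature. RNA precipitated with spermine, filter-captured and counted. IC50 from non-linear fit of retained cpm vs inhibitor concentration (tight-binding equation).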

[2] = molecular target: T2, HCV polymerase 1B (Δ21 NS5B, BK) (Hepatitis C virus genotype 1b, UniProt P26663); test: biochemical
T2 construct: 20 to 50 nM Δ21 NS5B
T2 sequence (P26663 2420-2989, stated change not applied): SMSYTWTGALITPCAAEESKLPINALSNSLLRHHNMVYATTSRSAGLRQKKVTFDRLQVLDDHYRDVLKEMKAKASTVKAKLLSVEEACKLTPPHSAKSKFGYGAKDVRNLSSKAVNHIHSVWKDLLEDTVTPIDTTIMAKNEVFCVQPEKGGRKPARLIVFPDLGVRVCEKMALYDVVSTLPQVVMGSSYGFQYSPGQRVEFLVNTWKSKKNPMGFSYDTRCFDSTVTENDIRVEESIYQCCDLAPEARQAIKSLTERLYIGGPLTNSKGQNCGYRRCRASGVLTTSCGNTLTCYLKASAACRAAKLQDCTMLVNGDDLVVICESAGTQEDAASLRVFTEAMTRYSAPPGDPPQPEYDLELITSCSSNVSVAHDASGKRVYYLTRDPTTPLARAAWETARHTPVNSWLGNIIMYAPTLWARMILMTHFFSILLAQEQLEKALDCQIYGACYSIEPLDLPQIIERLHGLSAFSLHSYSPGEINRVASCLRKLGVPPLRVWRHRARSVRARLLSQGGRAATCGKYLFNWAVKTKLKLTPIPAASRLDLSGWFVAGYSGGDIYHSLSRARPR
Outline: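 Δ21 NS5B (genotype 1b, BK […]) preincubated 15 min RT with inhibitor, 2 mM MnCl2, pH 7.4, 60–125 μM GTP; started with 20 μM CTP/ATP, 1 μM 3H-UTP, 5 nM template RNA, run 2–4 h RT. Spermine-precipitated RNA filter-captured, scintillation counted; IC50 from tight-binding (Morrison) fit.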

[3] = system: genotype 1a-H77 subgenomic replicon cell line; test: microbe, parasite or virus in culture; type: cell-based, HCV; settings: read-out: EC50 1a
[4] = system: genotype 1b-Con1 subgenomic replicon cell line; test: microbe, parasite or virus in culture; type: cell-based, HCV; settings: read-out: EC50 1b

T1 sequence (P27958 2421-2990, stated change not applied): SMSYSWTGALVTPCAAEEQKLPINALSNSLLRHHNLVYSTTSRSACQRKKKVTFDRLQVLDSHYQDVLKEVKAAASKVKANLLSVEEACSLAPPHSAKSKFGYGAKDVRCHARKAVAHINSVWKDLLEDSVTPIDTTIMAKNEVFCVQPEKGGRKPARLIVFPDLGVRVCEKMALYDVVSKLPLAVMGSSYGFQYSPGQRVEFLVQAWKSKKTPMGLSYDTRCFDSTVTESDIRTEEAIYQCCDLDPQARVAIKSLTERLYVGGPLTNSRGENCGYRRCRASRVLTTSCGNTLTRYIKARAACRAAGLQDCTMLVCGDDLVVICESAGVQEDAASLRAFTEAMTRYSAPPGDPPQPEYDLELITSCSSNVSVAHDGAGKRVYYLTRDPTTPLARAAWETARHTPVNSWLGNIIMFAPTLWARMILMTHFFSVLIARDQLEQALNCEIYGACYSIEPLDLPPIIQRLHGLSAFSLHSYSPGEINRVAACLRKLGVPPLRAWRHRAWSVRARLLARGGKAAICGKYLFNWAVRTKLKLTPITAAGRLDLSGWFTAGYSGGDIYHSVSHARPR

Row | Compound | IC50 ([1]; read-out: IC50 1a) [nM] | IC50 ([2]; HCV polymerase 1b, read-out: IC50 1b) [nM] | EC50 ([3]; genotype 1a-H77 replicon, luciferase reporter) [nM] | EC50 ([4]; genotype 1b-Con1 replicon, luciferase reporter) [nM] | IC50 ([1]; IC50 1a) [nM] | IC50 [2] [nM] | EC50 ([3]; Hepatitis C virus) [nM] | EC50 ([4]; Hepatitis C virus) [nM]
1 | COc1cc(NS(C)(=O)=O)ccc1/C=C/c1cc(N2CCC(=O)NC2=O)cc(C(C)(C)C)c1OC [IA-L1-1.27, N-(4-{(E)-2-[3-tert-Butyl-5-(dioxo-tetrahydro-pyrimidin-1-yl)-2-methoxy-phenyl]-vinyl}-3-methoxy-phenyl)-methanesulfonamide] | < 10 | 10 to 100 | 10 to 100 | < 10 | – | – | – | –
2 | CC(C)(C)c1cc(C#Cc2ccc(NS(C)(=O)=O)cc2)cc(N2CCC(=O)NC2=O)c1 [IA-L2-1.1, N-(4-((3-tert-butyl-5-(2,4-dioxotetrahydropyrimidin-1(2H)-yl)phenyl)ethynyl)phenyl)-methanesulfonamide] | – | – | – | – | 10 to 100 | < 10 | 100 to 1000 | 10 to 100
3 | Cc1cc(NS(C)(=O)=O)ccc1C#Cc1cc(N2CCC(=O)NC2=O)cc(C(C)(C)C)c1 [IA-L2-1.2, N-(4-((3-tert-butyl-5-(2,4-dioxotetrahydropyrimidin-1(2H)-yl)phenyl)ethynyl)-3-methyl-phenyl)methanesulfonamide] | – | – | – | – | < 10 | < 10 | 10 to 100 | 10 to 100
4 | CC(C)(C)c1cc(C#Cc2ccc(NS(C)(=O)=O)cc2Cl)cc(N2CCC(=O)NC2=O)c1 [IA-L2-1.3, N-(4-((3-tert-butyl-5-(2,4-dioxotetrahydropyrimidin-1(2H)-yl)phenyl)ethynyl)-3-chlorophenyl)methanesulfonamide] | – | – | – | – | < 10 | < 10 | 10 to 100 | < 10
5 | COc1c(C#Cc2ccccc2)cc(N2CCC(=O)NC2=O)cc1C(C)(C)C [IA-L2-1.4, 1-(3-tert-butyl-4-methoxy-5-(phenylethynyl)phenyl)dihydropyrimidine-2,4(1H,3H)-dione] | – | – | – | – | 100 to 1000 | 100 to 1000 | 100 to 1000 | 100 to 1000
6 | COc1c(C#Cc2cccc(NS(C)(=O)=O)c2)cc(N2CCC(=O)NC2=O)cc1C(C)(C)C [IA-L2-1.7, N-(3-((3-tert-butyl-5-(2,4-dioxotetrahydropyrimidin-1(2H)-yl)-2-methoxyphenyl)ethynyl)phenyl)methanesulfonamide] | – | – | – | – | 10 to 100 | 10 to 100 | > 1000 | 100 to 1000
7 | COc1c(C#Cc2ccc(NS(C)(=O)=O)cc2)cc(N2CCC(=O)NC2=O)cc1C(C)(C)C [IA-L2-1.8, N-(4-((3-tert-butyl-5-(2,4-dioxotetrahydropyrimidin-1(2H)-yl)-2-methoxyphenyl)ethynyl)-phenyl)methanesulfonamide] | – | – | – | – | < 10 | < 10 | 10 to 100 | < 10
8 | COc1c(C#Cc2ccc(NS(C)(=O)=O)cc2C)cc(N2CCC(=O)NC2=O)cc1C(C)(C)C [IA-L2-1.9, N-(4-((3-tert-butyl-5-(2,4-dioxotetrahydropyrimidin-1(2H)-yl)-2-methoxyphenyl)ethynyl)-3-methylphenyl)methanesulfonamide] | – | – | – | – | < 10 | < 10 | < 10 | < 10
9 | COc1c(C#Cc2ccc(NS(C)(=O)=O)c(C)c2)cc(N2CCC(=O)NC2=O)cc1C(C)(C)C [IA-L2-1.10, N-(4-((3-tert-butyl-5-(2,4-dioxotetrahydropyrimidin-1(2H)-yl)-2-methoxyphenyl)ethynyl)-2-methylphenyl)methanesulfonamide] | – | – | – | – | 10 to 100 | 10 to 100 | 100 to 1000 | 10 to 100
10 | CCc1cc(NS(C)(=O)=O)ccc1C#Cc1cc(N2CCC(=O)NC2=O)cc(C(C)(C)C)c1OC [IA-L2-1.11, N-(4-((3-tert-butyl-5-(2,4-dioxotetrahydropyrimidin-1(2H)-yl)-2-methoxyphenyl)ethynyl)-3-ethylphenyl)methanesulfonamide] | – | – | – | – | < 10 | 10 to 100 | < 10 | < 10
11 | COc1c(C#Cc2ccc(NS(C)(=O)=O)cc2F)cc(N2CCC(=O)NC2=O)cc1C(C)(C)C [IA-L2-1.12, N-(4-((3-tert-butyl-5-(2,4-dioxotetrahydropyrimidin-1(2H)-yl)-2-methoxyphenyl)ethynyl)-3-fluorophenyl)methanesulfonamide] | – | – | – | – | < 10 | < 10 | 10 to 100 | < 10
12 | COc1c(C#Cc2ccc(NS(C)(=O)=O)c(F)c2)cc(N2CCC(=O)NC2=O)cc1C(C)(C)C [IA-L2-1.13, N-(4-((3-tert-butyl-5-(2,4-dioxotetrahydropyrimidin-1(2H)-yl)-2-methoxyphenyl)ethynyl)-2-fluorophenyl)methanesulfonamide] | – | – | – | – | < 10 | < 10 | 100 to 1000 | 10 to 100
13 | COc1c(C#Cc2ccc(NS(C)(=O)=O)cc2Cl)cc(N2CCC(=O)NC2=O)cc1C(C)(C)C [IA-L2-1.14, N-(4-((3-tert-butyl-5-(2,4-dioxotetrahydropyrimidin-1(2H)-yl)-2-methoxyphenyl)ethynyl)-3-chlorophenyl)methanesulfonamide] | – | – | – | – | < 10 | < 10 | < 10 | < 10
14 | COc1c(C#Cc2ccc(NS(C)(=O)=O)c(Cl)c2)cc(N2CCC(=O)NC2=O)cc1C(C)(C)C [IA-L2-1.15, N-(4-((3-tert-butyl-5-(2,4-dioxotetrahydropyrimidin-1(2H)-yl)-2-methoxyphenyl)ethynyl)-2-chlorophenyl)methanesulfonamide] | – | – | – | – | 10 to 100 | 10 to 100 | 100 to 1000 | 100 to 1000
15 | COc1cc(NS(C)(=O)=O)ccc1C#Cc1cc(N2CCC(=O)NC2=O)cc(C(C)(C)C)c1OC [IA-L2-1.16, N-(4-((3-tert-butyl-5-(2,4-dioxotetrahydropyrimidin-1(2H)-yl)-2-methoxyphenyl)ethynyl)-3-methoxyphenyl)methanesulfonamide] | – | – | – | – | < 10 | 10 to 100 | 10 to 100 | < 10
16 | COc1c(C#Cc2ccc(NS(C)(=O)=O)c(OC(F)(F)F)c2)cc(N2CCC(=O)NC2=O)cc1C(C)(C)C [IA-L2-1.17, N-(4-((3-tert-butyl-5-(2,4-dioxotetrahydropyrimidin-1(2H)-yl)-2-methoxyphenyl)ethynyl)-2-(trifluoromethoxy)phenyl)methanesulfonamide] | – | – | – | – | 10 to 100 | 10 to 100 | 100 to 1000 | 10 to 100
17 | COc1c(C#Cc2ccc(NS(C)(=O)=O)cc2C(F)(F)F)cc(N2CCC(=O)NC2=O)cc1C(C)(C)C [IA-L2-1.18, N-(4-((3-tert-butyl-5-(2,4-dioxotetrahydropyrimidin-1(2H)-yl)-2-methoxyphenyl)ethynyl)-3-(trifluoromethyl)phenyl)methanesulfonamide] | – | – | – | – | < 10 | < 10 | 10 to 100 | < 10
18 | COc1c(C#Cc2ccc(NS(C)(=O)=O)c(C(F)(F)F)c2)cc(N2CCC(=O)NC2=O)cc1C(C)(C)C [IA-L2-1.19, N-(4-((3-tert-butyl-5-(2,4-dioxotetrahydropyrimidin-1(2H)-yl)-2-methoxyphenyl)ethynyl)-2-(trifluoromethyl)phenyl)methanesulfonamide] | – | – | – | – | 100 to 1000 | 10 to 100 | > 1000 | > 1000
19 | COc1c(C#Cc2cc(F)c(NS(C)(=O)=O)cc2C)cc(N2CCC(=O)NC2=O)cc1C(C)(C)C [IA-L2-1.20, N-(4-((3-tert-butyl-5-(2,4-dioxotetrahydropyrimidin-1(2H)-yl)-2-methoxyphenyl)ethynyl)-2-fluoro-5-methylphenyl)methanesulfonamide] | – | – | – | – | < 10 | 10 to 100 | 10 to 100 | < 10
20 | COc1c(C#Cc2ccc(NS(C)(=O)=O)c(F)c2Cl)cc(N2CCC(=O)NC2=O)cc1C(C)(C)C [IA-L2-1.21, N-(4-((3-tert-butyl-5-(2,4-dioxotetrahydropyrimidin-1(2H)-yl)-2-methoxyphenyl)ethynyl)-3-chloro-2-fluorophenyl)methanesulfonamide] | – | – | – | – | < 10 | 10 to 100 | 10 to 100 | < 10
21 | COc1c(C#Cc2cc(F)c(NS(C)(=O)=O)cc2C(F)(F)F)cc(N2CCC(=O)NC2=O)cc1C(C)(C)C [IA-L2-1.22, N-(4-((3-tert-butyl-5-(2,4-dioxotetrahydropyrimidin-1(2H)-yl)-2-methoxyphenyl)ethynyl)-2-fluoro-5-(trifluoromethyl)phenyl)methanesulfonamide] | – | – | – | – | 10 to 100 | 10 to 100 | 100 to 1000 | 10 to 100
22 | COc1c(C#Cc2ccc(NS(C)(=O)=O)cc2)cc(N2CCC(=O)NC2=O)cc1C1CC1 [IA-L2-1.23, N-(4-((3-cyclopropyl-5-(2,4-dioxotetrahydropyrimidin-1(2H)-yl)-2-methoxyphenyl)ethynyl)phenyl)methanesulfonamide] | – | – | – | – | 100 to 1000 | 100 to 1000 | > 1000 | 100 to 1000
23 | COc1c(C#Cc2ncc(NS(C)(=O)=O)cc2C)cc(N2CCC(=O)NC2=O)cc1C(C)(C)C [IA-L2-1.24, N-(6-((3-tert-butyl-5-(2,4-dioxotetrahydropyrimidin-1(2H)-yl)-2-methoxyphenyl)ethynyl)-5-methylpyridin-3-yl)methanesulfonamide] | – | – | – | – | < 10 | 10 to 100 | 100 to 1000 | 10 to 100
